In patent US8148391B2 (Cephalon, Inc., priority 2006, dated 2012) one finds IC50 data, which are given here for 23 compounds.

Assay [1] addresses T1, baculovirus-expressed ALK (Homo sapiens, UniProt Q9UM73).
T1 construct: host or cells: baculovirus expression system
In words: ALK Kinase Assay (ELISA-type, time-resolved fluorescence). As to conditions: 1 μM ATP (Km level); read-out: ALK Activity (ALK Kinase Inhibition, IC50). It is filed as biochemical. The procedure, abridged:
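Substrate coating: phospholipase C-γ, 10 μg/mL in TBS. Kinase step: 30 ng/ml ALK, 15 min, 37° C. Detection and analysis: Eu-N1 PT66 antibody, with IC50 fitted as a sigmoidal variable-slope dose-response curve.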
A general note: In an ELISA, binding on a coated surface is turned into a signal by an enzyme label.

The target of assay [2] is T2, c-Met (cytoplasmic domain) (Homo sapiens, UniProt P08581).
T2 construct: 10 ng/mL c-Met (cytoplasmic domain, Invitrogen Corporation #PV3143); purchased Invitrogen Corporation PV3143
T2 sequence (P08581 956-1390 limits assumed): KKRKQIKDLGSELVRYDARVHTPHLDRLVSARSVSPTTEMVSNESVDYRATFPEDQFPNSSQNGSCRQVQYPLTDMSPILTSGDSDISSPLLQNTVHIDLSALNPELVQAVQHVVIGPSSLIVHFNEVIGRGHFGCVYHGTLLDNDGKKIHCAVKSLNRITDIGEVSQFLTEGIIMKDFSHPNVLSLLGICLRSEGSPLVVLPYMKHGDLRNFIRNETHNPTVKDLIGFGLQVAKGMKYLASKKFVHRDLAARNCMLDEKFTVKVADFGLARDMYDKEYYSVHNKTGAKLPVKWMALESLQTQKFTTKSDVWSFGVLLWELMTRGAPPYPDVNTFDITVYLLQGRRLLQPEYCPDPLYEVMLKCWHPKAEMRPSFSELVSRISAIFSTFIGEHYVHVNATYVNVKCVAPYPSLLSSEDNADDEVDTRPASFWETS
The assay can be described thus: c-Met Kinase Assay (same methods as for ALK, with modifications). It is filed as biochemical. As to conditions: 1 μM ATP (Km level); read-out: cMet Activity (c-Met Kinase Inhibition, IC50). The procedure, abridged:
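This plate-based kinase format uses immobilized phospholipase C-γ as substrate, phosphorylated by c-Met cytoplasmic domain (10 ng/mL) at 37° C for 15 minutes.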

T1 sequence (Q9UM73 19-1620): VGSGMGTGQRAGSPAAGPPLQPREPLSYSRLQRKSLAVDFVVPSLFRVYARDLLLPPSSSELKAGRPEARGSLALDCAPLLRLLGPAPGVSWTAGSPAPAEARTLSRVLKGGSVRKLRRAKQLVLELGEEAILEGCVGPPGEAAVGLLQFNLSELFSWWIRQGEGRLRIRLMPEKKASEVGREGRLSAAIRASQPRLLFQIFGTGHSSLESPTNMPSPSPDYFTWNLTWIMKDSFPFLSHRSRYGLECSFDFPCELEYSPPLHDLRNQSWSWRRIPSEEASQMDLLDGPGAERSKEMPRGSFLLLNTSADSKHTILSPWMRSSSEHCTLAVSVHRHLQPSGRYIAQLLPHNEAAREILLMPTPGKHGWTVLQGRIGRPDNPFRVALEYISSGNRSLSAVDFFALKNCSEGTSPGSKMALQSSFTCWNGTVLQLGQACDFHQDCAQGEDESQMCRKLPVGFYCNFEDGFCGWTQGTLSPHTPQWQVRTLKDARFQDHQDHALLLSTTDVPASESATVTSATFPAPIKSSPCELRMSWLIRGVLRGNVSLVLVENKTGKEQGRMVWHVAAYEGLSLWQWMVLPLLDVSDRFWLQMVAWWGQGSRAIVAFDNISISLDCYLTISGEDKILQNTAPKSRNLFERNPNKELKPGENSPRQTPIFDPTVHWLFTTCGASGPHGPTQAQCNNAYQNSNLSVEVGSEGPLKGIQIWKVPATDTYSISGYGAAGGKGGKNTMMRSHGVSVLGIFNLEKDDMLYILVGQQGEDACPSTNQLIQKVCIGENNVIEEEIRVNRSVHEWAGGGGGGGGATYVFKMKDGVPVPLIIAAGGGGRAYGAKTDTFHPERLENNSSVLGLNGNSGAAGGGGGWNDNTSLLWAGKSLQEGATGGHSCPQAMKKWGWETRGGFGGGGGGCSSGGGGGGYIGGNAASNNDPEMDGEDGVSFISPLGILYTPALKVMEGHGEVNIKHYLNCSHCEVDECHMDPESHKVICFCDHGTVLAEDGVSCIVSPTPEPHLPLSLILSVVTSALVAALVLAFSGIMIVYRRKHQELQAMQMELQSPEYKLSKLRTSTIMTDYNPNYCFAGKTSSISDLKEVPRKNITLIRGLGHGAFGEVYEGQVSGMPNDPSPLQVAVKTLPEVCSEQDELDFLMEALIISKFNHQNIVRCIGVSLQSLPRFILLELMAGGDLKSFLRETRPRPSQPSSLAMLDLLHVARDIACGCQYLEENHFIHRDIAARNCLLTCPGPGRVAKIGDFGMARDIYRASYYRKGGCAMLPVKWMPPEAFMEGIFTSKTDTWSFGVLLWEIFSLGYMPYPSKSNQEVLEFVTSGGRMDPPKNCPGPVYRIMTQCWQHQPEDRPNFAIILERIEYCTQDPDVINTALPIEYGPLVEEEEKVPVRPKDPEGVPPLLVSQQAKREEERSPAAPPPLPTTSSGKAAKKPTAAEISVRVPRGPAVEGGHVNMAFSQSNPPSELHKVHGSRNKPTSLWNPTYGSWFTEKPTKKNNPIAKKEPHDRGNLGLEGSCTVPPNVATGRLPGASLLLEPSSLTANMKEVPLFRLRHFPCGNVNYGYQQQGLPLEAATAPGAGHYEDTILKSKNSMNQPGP

Turning to `CCN1C(=O)CCC(C)(C)c2ccc(Nc3ncc(Cl)c(Nc4ccc(N(C)C)cc4S(=O)(=O)N(C)C)n3)cc21` [Example 850, 2-[5-Chloro-2-(1-ethyl-5,5-dimethyl-2-oxo-2,3,4,5-tetrahydro-1H-benzo[b]azepin-8-ylamino)-pyrimidin-4-ylamino]-5-dimethylamino-N,N-dimethyl-benzenesulfonamide], the IC50 (usually the concentration that inhibits the measured activity by half) in assay [1] was less than 0.1 µM; in assay [2], 0.1 to 1 µM.
The corresponding values for `CCN1C(=O)CCC(C)(C)c2ccc(Nc3ncc(Cl)c(Nc4ccc(N5CCOCC5)cc4S(=O)(=O)N(C)C)n3)cc21` [Example 851, 2-[5-Chloro-2-(1-ethyl-5,5-dimethyl-2-oxo-2,3,4,5-tetrahydro-1H-benzo[b]azepin-8-ylamino)-pyrimidin-4-ylamino]-N,N-dimethyl-5-morpholin-4-yl-benzenesulfonamide] are less than 0.1 µM and 1 to 10 µM.
Turning to `COCCN1CCc2ccc(Nc3ncc(Cl)c(Nc4ccc(N(C)C)cc4S(=O)(=O)N(C)C)n3)cc2CC1` [Example 852, 2-{5-Chloro-2-[3-(2-methoxy-ethyl)-2,3,4,5-tetrahydro-1H-benzo[d]azepin-7-ylamino]-pyrimidin-4-ylamino}-5-dimethylamino-N,N-dimethyl-benzenesulfonamide], the concentration for half-maximal inhibition (IC50) in assay [1] was less than 0.1 µM; in assay [2], 1 to 10 µM.
For `COCCN1CCc2ccc(Nc3ncc(Cl)c(Nc4ccc(N5CCOCC5)cc4S(=O)(=O)N(C)C)n3)cc2CC1` [Example 853, 2-{5-Chloro-2-[3-(2-methoxy-ethyl)-2,3,4,5-tetrahydro-1H-benzo[d]azepin-7-ylamino]-pyrimidin-4-ylamino}-N,N-dimethyl-5-morpholin-4-yl-benzenesulfonamide], in that order: less than 0.1 µM and 1 to 10 µM.
For `COCCN1CCc2cc(Nc3ncc(Cl)c(Nc4ccccc4S(=O)(=O)N4CC[C@H](C)C4)n3)c(OC)cc2CC1` [Example 854, 5-Chloro-N(2)-[8-methoxy-3-(2-methoxy-ethyl)-2,3,4,5-tetrahydro-1H-benzo[d]azepin-7-yl]-N(4)-[2-((S)-3-methyl-pyrrolidine-1-sulfonyl)-phenyl]-pyrimidine-2,4-diamine], in that order: less than 0.1 µM and 0.1 to 1 µM.
The corresponding values for `COc1cc2c(cc1Nc1ncc(Cl)c(Nc3ccccc3S(=O)(=O)N3CC[C@H](C)C3)n1)CCN(CCO)CC2` [Example 855, 2-(7-{5-Chloro-4-[2-((S)-3-methyl-pyrrolidine-1-sulfonyl)-phenylamino]-pyrimidin-2-ylamino}-8-methoxy-1,2,4,5-tetrahydro-benzo[d]azepin-3-yl)-ethanol] are less than 0.1 µM and 0.1 to 1 µM.
Turning to `COc1cc2c(cc1Nc1ncc(Cl)c(Nc3ccccc3S(=O)(=O)N3CC[C@H](C)C3)n1)CCN(CC(=O)N(C)C)CC2` [Example 856, 2-(7-{5-Chloro-4-[2-((S)-3-methyl-pyrrolidine-1-sulfonyl)-phenylamino]-pyrimidin-2-ylamino}-8-methoxy-1,2,4,5-tetrahydro-benzo[d]azepin-3-yl)-N,N-dimethyl-acetamide], the IC50 was less than 0.1 µM in assay [1] and 0.1 to 1 µM in assay [2].
As for `NC(=O)C1C2C=CC(C2)C1Nc1nc(Nc2cccc3c2OCCCC3)ncc1Cl` (stereo not drawn) [Example 861, (2-exo-3-exo)-3-[5-Chloro-2-(2,3,4,5-tetrahydro-benzo[b]oxepin-9-ylamino)-pyrimidin-4-ylamino]-bicyclo[2.2.1]hept-5-ene-2-carboxylic acid amide], the IC50 in assay [1] was less than 0.1 µM; in assay [2] it was more than 10 µM.
The corresponding values for `COc1cc(N2CCOCC2)ccc1Nc1nc(Nc2cccc3c2OCCCC3)ncc1Cl` [Example 862, 5-Chloro-N*4*-(2-methoxy-4-morpholin-4-yl-phenyl)-N*2*-(2,3,4,5-tetrahydrobenzo[b]oxepin-9-yl)pyrimidine-2,4-diamine] are less than 0.1 µM and more than 10 µM.
For `CS(=O)(=O)N[C@@H]1CCCC[C@H]1Nc1nc(Nc2cccc3c2OCCCC3)ncc1Cl` [Example 863, N-{(1R,2R)-2-[5-Chloro-2-(2,3,4,5-tetrahydro-benzo[b]oxepin-9-ylamino)pyrimidin-4-ylamino]-cyclohexyl}-methanesulfonamide], in that order: less than 0.1 µM and more than 10 µM.
On to `COc1ccccc1Nc1nc(Nc2cccc3c2OCCCC3)ncc1Cl` [Example 864, 5-Chloro-N*4*-(2-methoxy-phenyl)-N*2*-(2,3,4,5-tetrahydrobenzo[b]oxepin-9-yl)-pyrimidine-2,4-diamine], for which the IC50 in assay [1] is 1 to 10 µM; in assay [2], more than 10 µM.
The corresponding values for `COc1cc(N2CCOCC2)ccc1Nc1nc(Nc2ccc3c(c2)CCC(N2CCOCC2)CC3)ncc1Cl` (stereo not shown) [Example 865, 5-Chloro-N*4*-(2-methoxy-4-morpholin-4-yl-phenyl)-N*2*-(7-morpholin-4-yl-6,7,8,9-tetrahydro-5H-benzocyclohepten-2-yl)-pyrimidine-2,4-diamine] are less than 0.1 µM and 1 to 10 µM.
Turning to `CCNC(=O)c1ccccc1Nc1nc(Nc2ccc3c(c2)CCC(N2CCOCC2)CC3)ncc1Cl` (stereo not shown) [Example 866, 2-[5-Chloro-2-(7-morpholin-4-yl-6,7,8,9-tetrahydro-5H-benzocyclohepten-2-ylamino)-pyrimidin-4-ylamino]-N-ethyl-benzamide], the IC50 in assay [1] and in assay [2] was less than 0.1 µM throughout.
For the compound `NC(=O)C1C2C=CC(C2)C1Nc1nc(Nc2ccc3c(c2)CCC(N2CCOCC2)CC3)ncc1Cl` (stereo not shown) [Example 867, 3-[5-Chloro-2-(7-morpholin-4-yl-6,7,8,9-tetrahydro-5H-benzocyclohepten-2-ylamino)-pyrimidin-4-ylamino]-bicyclo[2.2.1]hept-5-ene-2-carboxylic acid amide], the IC50 in assay [1] was less than 0.1 µM; in assay [2], 0.1 to 1 µM.
For `CNC(=O)c1ccccc1Nc1nc(Nc2ccc3c(c2OC)CCC(=O)CC3)ncc1Cl` [Example 868, 2-[5-Chloro-2-(1-methoxy-7-oxo-6,7,8,9-tetrahydro-5H-benzocyclohepten-2-ylamino)-pyrimidin-4-ylamino]-N-methyl-benzamide], in that order: less than 0.1 µM and more than 10 µM.
The corresponding values for `COc1c(Nc2ncc(Cl)c(N[C@H]3[C@@H](C(N)=O)[C@@H]4C=C[C@H]3C4)n2)ccc2c1CCC(=O)CC2` [Example 869, (1S,2S,3R,4R)-3-[5-Chloro-2-(1-methoxy-7-oxo-6,7,8,9-tetrahydro-5H-benzocyclohepten-2-ylamino)-pyrimidin-4-ylamino]-bicyclo[2.2.1]hept-5-ene-2-carboxylic acid amide] are less than 0.1 µM and more than 10 µM.
For `CC1(C)CCCOc2c(Nc3ncc(Cl)c(N[C@@H]4[C@H](C(N)=O)[C@H]5C=C[C@@H]4C5)n3)cccc21` [Example 870, (1R,2R,3S,4S)-3-[5-Chloro-2-(5,5-dimethyl-2,3,4,5-tetrahydro-benzo[b]oxepin-9-ylamino)-pyrimidin-4-ylamino]-bicyclo[2.2.1]hept-5-ene-2-carboxylic acid amide], in that order: 0.1 to 1 µM and more than 10 µM.
Regarding `CN1C(=O)CCCc2cc(Nc3ncc(Cl)c(Nc4ccccc4C(=O)NCCC#N)n3)ccc21` [Example 871, 2-[5-Chloro-2-(1-methyl-2-oxo-2,3,4,5-tetrahydro-1H-benzo[b]azepin-7-ylamino)-pyrimidin-4-ylamino]-N-(2-cyano-ethyl)-benzamide], the 50% inhibitory concentration (IC50) in assay [1] and in assay [2] was less than 0.1 µM throughout.
Take `COc1cc(N2CCN(C)CC2)ccc1Nc1nc(Nc2cccc3c2OCCCC3(C)C)ncc1Cl` [Example 872, 5-Chloro-N*2*-(5,5-dimethyl-2,3,4,5-tetrahydro-benzo[b]oxepin-9-yl)-N*4*-[2-methoxy-4-(4-methyl-piperazin-1-yl)-phenyl]-pyrimidine-2,4-diamine]: the IC50 in assay [1] is less than 0.1 µM; in assay [2], more than 10 µM.
On to `CCNC(=O)c1ccccc1Nc1nc(Nc2cccc3c2OCCCC3(C)C)ncc1Cl` [Example 873, 2-[5-Chloro-2-(5,5-dimethyl-2,3,4,5-tetrahydro-benzo[b]oxepin-9-ylamino)-pyrimidin-4-ylamino]-N-ethyl-benzamide], for which the IC50 was less than 0.1 µM in assay [1] and more than 10 µM in assay [2].
For `CCNC(=O)c1cccc(F)c1Nc1nc(Nc2cccc3c2OCCCC3(C)C)ncc1Cl` [Example 874, 2-[5-Chloro-2-(5,5-dimethyl-2,3,4,5-tetrahydro-benzo[b]oxepin-9-ylamino)-pyrimidin-4-ylamino]-N-ethyl-3-fluoro-benzamide], in that order: 0.1 to 1 µM and more than 10 µM.
The corresponding values for `CC1(C)CCCOc2c(Nc3ncc(Cl)c(N[C@@H]4CCCC[C@H]4NS(C)(=O)=O)n3)cccc21` [Example 875, N-{(1R,2R)-2-[5-Chloro-2-(5,5-dimethyl-2,3,4,5-tetrahydro-benzo[b]oxepin-9-ylamino)-pyrimidin-4-ylamino]-cyclohexyl}-methanesulfonamide] are less than 0.1 µM and more than 10 µM.
Turning to `COc1cc(N2CCOCC2)ccc1Nc1nc(Nc2cccc3c2OCCCC3(C)C)ncc1Cl` [Example 876, 5-Chloro-N*2*-(5,5-dimethyl-2,3,4,5-tetrahydro-benzo[b]oxepin-9-yl)-N*4*-(2-methoxy-4-morpholin-4-yl-phenyl)-pyrimidine-2,4-diamine], the IC50 is 0.1 to 1 µM in assay [1] and more than 10 µM in assay [2].
